Reference: patent US8791139B2, “Anthranilic diamide derivatives” (Bayer Cropscience AG, priority 2010, dated 2014)
Read-outs that look alike come from different tables or passages of the source.

Legend:
[1] = test system: larvae of the mustard beetle (Phaedon cochleariae); experiment: Phaedon test (PHAECO spray treatment); conditions: 168 h; for pest or weed control at 100 g/ha / pest or weed control at 500 g/ha: read-out: activity (beetle larvae killed); for inhibition at 100 g/ha: read-out: % Activity, PHAECO
[2] = test system: caterpillars of the armyworm (Spodoptera frugiperda); experiment: Spodoptera frugiperda test (SPODFR spray treatment); assay type: in vivo; conditions: 168 h; for pest or weed control at 100 g/ha / pest or weed control at 500 g/ha: read-out: activity (caterpillars killed); for inhibition at 100 g/ha: 7 d, comparison with prior art
Procedure: After 7 days, the effect in % is determined.

[3] = logP by HPLC on reversed-phase columns (C18), EEC Directive 79/831 Annex V.A8; assay type: physicochemical
Procedure: The logP values reported in the table above and in the Preparation Examples were determined in accordance with EEC Directive 79/831 Annex V.A8 by HPLC (High Performance Liquid Chromatography) on reversed-phase columns (C18), with the following methods:
The LC-MS determination in the acidic range is carried out at pH 2.7 using the mobile phases 0.1% aqueous formic acid and acetonitrile (contains 0.1% formic acid), linear gradient from 10% acetonitrile to 95% acetonitrile
Calibration was carried out using unbranched alkan-2-ones (having from 3 to 16 carbon atoms) with known logP values (the logP values were determined by the retention times using linear interpolation between two successive alkanones).

Lucilia cuprina larvae = experiment: Lucilia cuprina test (LUCICU); assay type: in vivo; conditions: application rate 100 ppm, after 48 h
Source text: (§1) Solvent: dimethyl sulphoxide
Vessels containing horse meat treated with the active compound preparation of the desired concentration are populated with about 20 Lucilia cuprina larvae.

[4] = test system: green peach aphid (Myzus persicae); experiment: Myzus test (MYZUPE spray treatment); assay type: in vivo; conditions: application rate 100 g/ha, after 6 days, Chinese cabbage leaf discs
Boophilus microplus = Boophilus microplus test (BOOPMI injection); assay type: in vivo; conditions: application rate 20 μg/animal, injection into abdomen, after 7 days
Procedure: as §1
The active compound solution is injected into the abdomen (Boophilus microplus), and the animals are transferred into dishes and stored in a climate-controlled room.
The activity is assessed by […] of fertile eggs. 100% means that none of the ticks has laid any fertile eggs.

[5] = reversed-phase HPLC column (C18), pH 2.7, HPLC reversed-phase C18, acidic range pH 2.7, 0.1% aqueous formic acid/acetonitrile, table of compounds of formula (I), read-out: log P
[6] = application rate 100 g/ha, after 7 days

SMILES	pest or weed control at 100 g/ha [1] [%]	pest or weed control at 100 g/ha [2] [%]	chromatographic logP ([3]; pH 2.7, log P)	further results
CNC(=O)c1cc(Cl)cc(C)c1NC(=O)c1cc(C2=NOC(c3cc(Cl)cc(Cl)c3)(C(F)(F)F)C2)nn1-c1ncccc1Cl (centres unmarked) [Example 1]	83	100	–	–
Cc1cc(Br)cc(C(=O)NC(C)C)c1NC(=O)c1cc(C(=O)Nc2ccc(C(F)(F)F)cc2)nn1-c1ncccc1Cl [Example 3]	100	–	4.02	–
Cc1cc(Cl)cc(C(=O)NC(C)C)c1NC(=O)c1cc(C(=O)Nc2ccc(C(F)(F)F)cc2)nn1-c1ncccc1Cl [Example 4]	–	83	3.96	–
CNC(=O)c1cc(Cl)cc(C)c1NC(=O)c1cc(C#Cc2ccc(OC(F)(F)F)cc2)nn1-c1ncccc1Cl [Example 10]	100	100	4.29	–
Cc1cc(Cl)cc(C(=O)NC(C)C)c1NC(=O)c1cc(C#Cc2ccc(OC(F)(F)F)cc2)nn1-c1ncccc1Cl [Example 11]	100	100	4.79	efficacy (kill of larvae) (Lucilia cuprina larvae): 90%
Cc1cc(C#N)cc(C(N)=O)c1NC(=O)c1cc(C#Cc2ccc(OC(F)(F)F)cc2)nn1-c1ncccc1Cl [Example 12]	–	100	3.58	efficacy (kill of larvae) (Lucilia cuprina larvae): 90%
CNC(=O)c1cc(C#N)cc(C)c1NC(=O)c1cc(C#Cc2ccc(OC(F)(F)F)cc2)nn1-c1ncccc1Cl [Example 13]	100	–	3.88	–
Cc1cc(C#N)cc(C(=O)NC(C)(C)C)c1NC(=O)c1cc(C(=O)c2nc(C(F)(F)F)cs2)nn1-c1ncccc1Cl [Example 14]	100	100	3.57	–
CCOc1ccc(C(=O)c2cc(C(=O)Nc3c(C)cc(C#N)cc3C(=O)NC)n(-c3ncccc3Cl)n2)cn1 [Example 17]	100	100	2.99	–
CNC(=O)c1cc(C#N)cc(C)c1NC(=O)c1cc(C(=O)c2ccc(C(F)(F)F)nc2)nn1-c1ncccc1Cl [Example 18]	100	–	3.01	inhibition at 100 g/ha [1]: 100%; inhibition at 100 g/ha [2]: 100%
Cc1cc(C#N)cc(C(=O)NC(C)(C)C)c1NC(=O)c1cc(C(=O)c2ccc(C(F)(F)F)nc2)nn1-c1ncccc1Cl [Example 19]	–	–	3.85	pest or weed control at 500 g/ha [1]: 100%; pest or weed control at 500 g/ha [2]: 100%
CNC(=O)c1cc(C#N)cc(C)c1NC(=O)c1cc(C(=O)c2nc(C(F)(F)F)cs2)nn1-c1ncccc1Cl [Example 20]	–	–	2.77	pest or weed control at 500 g/ha [1]: 100%; pest or weed control at 500 g/ha [2]: 100%
Cc1cc(C#N)cc(C(=O)NC(C)C)c1NC(=O)c1cc(C(=O)c2nc(C(F)(F)F)cs2)nn1-c1ncccc1Cl [Example 21]	100	100	3.24	efficacy (kill of larvae) (Lucilia cuprina larvae): 100%; activity (aphids killed) [4]: 90%
CNC(=O)c1cc(Cl)cc(C)c1NC(=O)c1cc(N2CCN(c3cc(C(F)(F)F)cc(C(F)(F)F)c3)C2=O)nn1-c1ncccc1Cl [Example 22]	100	–	–	chromatographic logP [3, 5]: 4.43; pest or weed control at 100 g/ha [2, 6]: 100%; efficacy (kill of larvae) (Lucilia cuprina larvae): 100%; efficacy (no fertile eggs laid) (Boophilus microplus): 100%
CNC(=O)c1cc(Cl)cc(C)c1NC(=O)c1cc(CN(C=O)c2ccccc2NS(C)(=O)=O)nn1-c1ncccc1Cl [Example 32]	–	–	2.09	activity (aphids killed) [4]: 80%
CNC(=O)c1cc(Cl)cc(C)c1NC(=O)c1cc(CN(C=O)c2ccc(Cl)cc2NS(C)(=O)=O)nn1-c1ncccc1Cl [Example 33]	–	100	2.49	activity (aphids killed) [4]: 90%

SMILES	pest or weed control at 100 g/ha [1] [%]	pest or weed control at 100 g/ha [2] [%]	chromatographic logP ([3]; pH 2.7, log P)	further results
Cc1cc(Cl)cc(C(=O)NC(C)C)c1NC(=O)c1cc(CNS(=O)(=O)c2ccc(C(F)(F)F)cc2)nn1-c1ncccc1Cl [Example 46]	–	83	3.47	–
Cc1cc(Cl)cc(C(=O)NC(C)C)c1NC(=O)c1cc(CNS(=O)(=O)Cc2ccc(C(F)(F)F)cc2C(F)(F)F)nn1-c1ncccc1Cl [Example 52]	–	–	–	chromatographic logP [3, 5]: 3.92; pest or weed control at 100 g/ha [2, 6]: 83%
Cc1cc(Cl)cc(C(=O)NC(C)C)c1NC(=O)c1cc(CN(C)S(=O)(=O)c2cc(C(F)(F)F)cc(C(F)(F)F)c2)nn1-c1ncccc1Cl [Example 55]	–	–	–	chromatographic logP [3, 5]: 4.5; pest or weed control at 100 g/ha [2, 6]: 100%
Cc1cc(Cl)cc(C(=O)NC(C)C)c1NC(=O)c1cc(CN(C)S(=O)(=O)Cc2cc(C(F)(F)F)cc(C(F)(F)F)c2)nn1-c1ncccc1Cl [Example 56]	–	–	–	chromatographic logP [3, 5]: 4.37; pest or weed control at 100 g/ha [2, 6]: 100%
Cc1cc(Cl)cc(C(=O)NC2CC2)c1NC(=O)c1cc(CN(Cc2cc(C(F)(F)F)cc(C(F)(F)F)c2)S(C)(=O)=O)nn1-c1ncccc1Cl [Example 59]	–	–	–	chromatographic logP [3, 5]: 4.05; pest or weed control at 100 g/ha [2, 6]: 100%
CNC(=O)c1cc(C#N)cc(C)c1NC(=O)c1cc(C(O)Cn2nnc(C(F)(F)F)n2)nn1-c1ncccc1Cl (centres unmarked) [Example 63]	–	100	2.01	log P ([3]; pH 2.7): 2.27; efficacy (no fertile eggs laid) (Boophilus microplus): 100%; activity (aphids killed) [4]: 80%
CNC(=O)c1cc(C#N)cc(C)c1NC(=O)c1cc(/C=C/n2nnc(C(F)(F)F)n2)nn1-c1ncccc1Cl [Example 64]	100	100	3.17	–
Cc1cc(C#N)cc(C(=O)NC(C)C)c1NC(=O)c1cc(Nc2ccc(C(F)(F)F)cn2)nn1-c1ncccc1Cl [Example 67]	100	100	3.31	–
CNC(=O)c1cc(C#N)cc(C)c1NC(=O)c1cc(CN2CC(C(F)(F)F)C(c3ccc(Cl)cc3)=N2)nn1-c1ncccc1Cl (centres unmarked) [Example 68]	100	100	3.66	–
CNC(=O)c1cc(C#N)cc(C)c1NC(=O)c1cc(Nc2cc(C(F)(F)F)c(C(F)(F)F)cn2)nn1-c1ncccc1Cl [Example 71]	100	100	3.5	–
Cc1cc(C#N)cc(C(=O)NC(C)C)c1NC(=O)c1cc(Nc2cc(C(F)(F)F)cc(C(F)(F)F)c2)nn1-c1ncccc1Cl [Example 73]	100	100	–	–
Cc1cc(C#N)cc(C(=O)NC(C)C)c1NC(=O)c1cc(Nc2ccc(C(F)(F)F)cc2)nn1-c1ncccc1Cl [Example 74]	100	100	3.7	–
Cc1cc(C#N)cc(C(=O)NC(C)C)c1NC(=O)c1cc(Oc2ccc(C(F)(F)F)cn2)nn1-c1ncccc1Cl [Example 76]	100	100	3.4	–
CNC(=O)c1cc(C#N)cc(C)c1NC(=O)c1cc(Oc2ccc(C(F)(F)F)cn2)nn1-c1ncccc1Cl [Example 77]	100	100	2.89	–
CNC(=O)c1cc(C#N)cc(C)c1NC(=O)c1cc(CSc2ccc(C(F)(F)F)cn2)nn1-c1ncccc1Cl [No. 1 known WO 2007/144100, reference compound]	–	–	–	inhibition at 100 g/ha [1]: 0%; inhibition at 100 g/ha [2]: 0%
